Measured values published in publication PMC4548482 (Neuropharmacology, 2015).

Legend:
[1] = molecular target: T1, α7 L247T nAChRs (Homo sapiens, UniProt P36544, L270T); assay: Two-electrode voltage-clamp recording, human α7 nAChRs containing the L247T mutation in Xenopus oocytes; assay type: cell-based; conditions: for Imax: normalised to the maximum response to acetylcholine
T1 construct: expressed in transfected cells; host or cells: Xenopus laevis oocytes (cRNA injection)
Description: (§1) Site-directed mutagenesis was performed on human nAChR α7 subunit cDNA in plasmid pSP64GL using the QuikChange mutagenesis kit (Stratagene) and verified by nucleotide sequencing. Plasmid pSP64GL containing wild-type or mutated human α7 cDNA was linearized with BamHI and purified with QIAQuik PCR purification kit (Qiagen). In vitro synthesis of cRNA was performed using mMessage mMachine SP6 transcription kit (Life Technologies).
(§2) Oocytes were isolated from adult female Xenopus laevis following procedures that have been approved by UCL's Biological Services Management Group and the UK Home Office. […] Heterologous expression was achieved by injection of wild-type or mutated α7 cRNA (6–12 ng) into oocyte cytoplasm. Oocytes were injected in a volume of 20–30 nl using a Drummond variable volume microinjector. […] Experiments were performed on oocytes after 3–5 days of incubation.

[2] = molecular target: T2, α7 M260L nAChRs (Homo sapiens, UniProt P36544, M283L); assay: Two-electrode voltage-clamp recording, human α7 nAChRs containing the M260L mutation in Xenopus oocytes; assay type: cell-based; conditions: for Imax: normalised to the maximum response to acetylcholine
T2 construct: expressed in transfected cells; host or cells: Xenopus laevis oocytes (cRNA injection)
Description: as §1, §2

[3] = molecular target: T3, human α7 nAChRs (Homo sapiens, UniProt P36544); assay: Two-electrode voltage-clamp recording, wild-type human α7 nAChRs expressed in Xenopus oocytes; assay type: cell-based; conditions: Wild-type α7; for Imax: normalised to the maximum response to acetylcholine
T3 construct: expressed in transfected cells; host or cells: Xenopus laevis oocytes (cRNA injection)
Description: All plasmid constructs used in this study have been described previously.
as §2

[4] = molecular target: T3, human α7 nAChRs; assay type: binding

T1 sequence (P36544 23-502 L270T): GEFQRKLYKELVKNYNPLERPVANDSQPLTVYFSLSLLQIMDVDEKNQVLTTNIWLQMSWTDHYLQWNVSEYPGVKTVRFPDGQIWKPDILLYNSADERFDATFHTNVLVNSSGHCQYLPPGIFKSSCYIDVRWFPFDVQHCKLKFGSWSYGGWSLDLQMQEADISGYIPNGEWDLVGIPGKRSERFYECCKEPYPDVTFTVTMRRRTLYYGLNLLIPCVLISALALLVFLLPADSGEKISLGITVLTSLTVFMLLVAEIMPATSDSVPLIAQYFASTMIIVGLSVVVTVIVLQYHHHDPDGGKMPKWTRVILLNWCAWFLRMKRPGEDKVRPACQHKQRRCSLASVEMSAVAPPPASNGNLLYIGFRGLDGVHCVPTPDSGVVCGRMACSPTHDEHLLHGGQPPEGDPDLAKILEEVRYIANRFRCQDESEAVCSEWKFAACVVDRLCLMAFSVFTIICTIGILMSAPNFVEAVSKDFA
T2 sequence (P36544 23-502 M283L): as the sequence (P36544 23-502 L270T) above, with T248L, M261L counted along it
T3 sequence (P36544 23-502): as the sequence (P36544 23-502 L270T) above, with T248L counted along it

SMILES | nH (Hill coefficient) ([1]; α7 L247T, mean ± SEM) | EC50 ([1]; α7 L247T, mean ± SEM, read-out: EC50 (agonist)) [µM] | Imax ([1]; α7 L247T) | nH (Hill coefficient) ([2]; α7 M260L, mean ± SEM) | EC50 ([2]; α7 M260L, mean ± SEM, read-out: EC50 (agonist)) [µM] | Imax ([2]; α7 M260L) | nH (Hill coefficient) ([3]; mean ± SEM) | EC50 ([3]; mean ± SEM, read-out: EC50 (agonist)) [µM] | Imax [3] | Antagonism of responses to acetylcholine ([1]; L247T α7, MLA 1 μM pre- and co-applied, acetylcholine 10 μM) | Displacement of [3H]-α-bungarotoxin binding [4] | Antagonism of responses to acetylcholine ([2]; M260L α7, MLA 1 μM pre- and co-applied, acetylcholine 1 mM)
NS(=O)(=O)c1ccc2c(c1)[C@H]1C=CC[C@H]1[C@@H](c1ccc(Br)cc1)N2 [4BP-TQS, cis-cis-4-(4-bromophenyl)-3a,4,5,9b-tetrahydro-3H-cyclopenta[c]quinoline-8-sulfonamide] | 2.3 ± 0.2 | 0.03 ± 0.003 | 1.0 ± 0.1 | 2.3 ± 0.4 | 2.5 ± 0.4 | 9.0 ± 1.2 | 5.2 ± 0.8 | 4.2 ± 0.3 | 4.4 ± 0.3 | – | – | –
CC(=O)OCC[N+](C)(C)C [Acetylcholine, acetylcholine] | 2.1 ± 0.2 | – | 1 | – | – | 1 | 1.4 ± 0.2 | – | 1 | – | – | –
CCN1C[C@]2(COC(=O)c3ccccc3N3C(=O)C[C@H](C)C3=O)CC[C@H](OC)[C@@]34[C@@H]5C[C@H]6[C@H](OC)[C@@H]5[C@](O)(C[C@@H]6OC)[C@@](O)([C@@H](OC)[C@H]23)[C@@H]14 [MLA, methyllycaconitine] | – | – | – | – | – | – | – | – | – | blocked responses to acetylcholine | complete displacement | blocked responses to acetylcholine
